Test: Solubility of indacaterol maleate and glycopyrrolate
Assay type: physicochemical
Experimental: In a formulation it is necessary to be sure that the active pharmaceutical ingredients (API) are dissolved completely.
0.02% tween-80: […].
pH=3 0.02% tween-80: […], adjust pH to 3 with hydrochloric acid. Other solutions were similarly prepared. The percentages mentioned above are percentages by weight.

CCc1cc2c(cc1CC)CC(NC[C@H](O)c1ccc(O)c3[nH]c(=O)ccc13)C2.O=C(O)/C=C\C(=O)O [Indacaterol Maleate, (R)-5-[2-(5,6-Diethylindan-2-ylamino)-1-hydroxyethyl]-8-hydroxy-1H-quinolin-2-one maleate]
Solubility (0.02% tween-80): 29.52 mg/100 ml | Solubility (Purified water): 29.95 mg/100 ml | Solubility (in words) (cyclodextrin added): improved significantly | Solubility (in words) (in purified water): not sufficiently soluble | Solubility (pH = 3 0.02% tween-80): 32.17 mg/100 ml | Solubility (pH = 3 2.5% SBECD solution): 351.46 mg/100 ml | Solubility (pH = 3 5% SBECD solution): 539.5 mg/100 ml | Solubility (pH = 3 Purified water): 31.21 mg/100 ml | Solubility (pH = 3.5 0.02% tween-80): 30.8 mg/100 ml | Solubility (pH = 3.5 Purified water): 29.97 mg/100 ml | Solubility (pH = 4 0.02% tween-80): 30.91 mg/100 ml | Solubility (pH = 4 0.5% SBECD solution): 55.523 mg/100 ml | Solubility (pH = 4 1% SBECD solution): 161.866 mg/100 ml | Solubility (pH = 4 2% SBECD solution): 211.4 mg/100 ml | Solubility (pH = 4 5% SBECD solution): 316 mg/100 ml | Solubility (pH = 4 Purified water): 30.82 mg/100 ml | Solubility (pH = 4.5 0.02% tween-80): 30.41 mg/100 ml | Solubility (pH = 4.5 Purified water): 30.32 mg/100 ml | Solubility (pH = 5 0.02% tween-80): 30.84 mg/100 ml | Solubility (pH = 5 Purified water): 28.98 mg/100 ml | Solubility (in words) (tween 80 added): insufficient

— US20210386730A1 (priority 2020, published 2021)
